Source: PMC8954575, “Norepinephrine and Serotonin Can Modulate the Behavior of the Probiotic Enterococcus faecium NCIMB10415 towards the Host: Is a Putative Surface Sensor Involved?” (Microorganisms, 2022)

Molecular target: T1, VicK (WalK) (Enterococcus faecium, UniProt Q3XYG9)
T1 construct: VicK (WalK) from a synthetic codon-optimized gene in pET-15b, N-terminal His-tag, purified from E. coli BL21 with DDM, RED-NHS labelled
T1 sequence (Q3XYG9 1-611): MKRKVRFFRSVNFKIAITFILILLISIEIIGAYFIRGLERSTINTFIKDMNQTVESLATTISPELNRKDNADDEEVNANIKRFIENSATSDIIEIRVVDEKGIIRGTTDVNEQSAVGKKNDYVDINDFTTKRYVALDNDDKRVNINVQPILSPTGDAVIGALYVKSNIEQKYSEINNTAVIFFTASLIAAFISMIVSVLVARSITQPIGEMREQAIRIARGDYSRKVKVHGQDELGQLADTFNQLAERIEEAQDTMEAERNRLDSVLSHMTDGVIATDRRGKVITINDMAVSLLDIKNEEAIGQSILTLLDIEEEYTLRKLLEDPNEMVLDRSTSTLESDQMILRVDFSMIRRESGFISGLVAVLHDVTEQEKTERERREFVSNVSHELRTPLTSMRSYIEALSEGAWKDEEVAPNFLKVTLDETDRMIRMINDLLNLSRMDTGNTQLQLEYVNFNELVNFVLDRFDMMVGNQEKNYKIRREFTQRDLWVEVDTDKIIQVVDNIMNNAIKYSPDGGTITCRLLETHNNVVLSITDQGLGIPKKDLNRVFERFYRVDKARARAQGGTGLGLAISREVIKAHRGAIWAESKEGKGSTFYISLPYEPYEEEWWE
Experiment: Micro-Scale Thermophoresis with purified labelled protein
Format: binding

SMILES: NCCc1c[nH]c2ccc(O)cc12 [5HT, serotonin]
- Kd: 4.5 ± 0.07 mM
